Assay results taken from BindingDB's records for doi:10.1016/j.bmc.2009.07.009 (Universita Degli Studi Di Milano, 2009).

Molecular target: XIAP (Homo sapiens)
Assay: Fluorescence polarization was measured on an Ultra plate reader (Tecan) at excitation and emission wavelengths of 485 and 530 nm, respectively. The equilibrium binding curves were drawn by plotting millipolarization units (mP) as a function of recombinant XIAP concentration. All experiments were performed in black, flat-bottomed, 96-well mic
Details: pH 7.5

| SMILES | IC50 [nM] |
| --- | --- |
| CC[C@H](N)C(=O)N[C@@H]1C(=O)N2[C@@H](CC[C@@H]1CCN)CC[C@H]2C(=O)NC(c1ccccc1)c1ccccc1 [(3S,6S,7R,9aS)-6-[(2S)-2-aminobutanamido]-7-(2-aminoethyl)-N-(diphenylmethyl)-5-oxo-octahydro-1H-pyrrolo[1,2-a]azepine-3-carboxamide] | 250 |
| CC[C@H](N)C(=O)N[C@@H]1C(=O)N2[C@@H](CC[C@@H]1COC(=O)c1ccccc1)CC[C@H]2C(=O)NC(c1ccccc1)c1ccccc1 [1-aza-2-oxobicyclo[5.3.0]decane scaffold, 12b] | 600 |
